What was measured:
Format in all cases: in vivo, human
[1] = test system: Cytokine Release Syndrome (CRS); test: Cytokine Release Syndrome (CRS) management after CAR T therapy; conditions: grade 2 fever not resolved within 6 hours with conventional antipyretic methods
Protocol: This fever typically occurs earliest on day 3 (median is day 5, range is day 3-12). Tocilizumab administration results in remission in 90% of cases. However, if 24 hours after administering tocilizumab, the patient still presents with a grade 2 or higher fever or a refractory fever, treatment with corticosteroids should be initiated following ASCO guidelines. The remaining 10% of patients typically responds well to corticosteroids. If there is no improvement within 24 hours after this step, the administration of dasatinib at 100 mg once daily for 2-3 days can be administered.

[2] = test system: colorectal cancer (CRC) patients; test: Clinical trial: response and disease control to CAR T therapy with or without dasatinib; conditions: patients who got dasatinib
Protocol: (§1) This system was implemented in a clinical trial involving 35 colorectal cancer (CRC) patients, which were treated with mixed population of cells including GCC CAR T cells. Diarrhea, a common side effect, typically presented as early as day 7 (median=9, range 7-15) at a grade two severity or higher. The primary treatment for this was immediate administration of infliximab and, in some cases, dasatinib.
(§2) For the 1×10^6 CAR T/kg of body weight dose, half of the patients managed their diarrhea through supportive care and antidiarrheal medication. Around 85% experienced grade 2 or higher diarrhea, 67% of whom responded well to a single dose of infliximab. At a higher dose of 2×10^6 CAR T/kg bodyweight, only 13% of patients could control diarrhea with supportive care or antidiarrheal drugs, and all patients experienced a grade 2 or higher diarrhea, but only 43% responded to a single infliximab dose. […] In such cases, dasatinib was administered at 100 mg/day for over ten consecutive days until the patient's side effects reduced to grade 1 or less, and the patient was ready for discharge.

[3] = test system: colorectal cancer (CRC) patients; test: Clinical trial of mixed population of cells including GCC CAR T cells: diarrhea side effect and its management
Protocol: as §1, §2

## Tocilizumab
[1]
  remission of grade 2 fever (CRS) after tocilizumab administration, cases: 90%

## Cc1nc(Nc2ncc(C(=O)Nc3c(C)cccc3Cl)s2)cc(N2CCN(CCO)CC2)n1 [dasatinib]
[2]; 1 million cells/kg
  Disease Control Rate: 33.3%
  Response Rate to CAR T Therapy: 0%
[2]; 2 million+ cells/kg
  Disease Control Rate: 75%
  Response Rate to CAR T Therapy: 50%

## infliximab
[3]; 1×10^6 CAR T/kg of body weight
  patients with grade 2 or higher diarrhea who responded well to a single dose of infliximab: 67%
[3]; 2×10^6 CAR T/kg bodyweight
  patients with grade 2 or higher diarrhea who responded to a single infliximab dose: 43%
[3]; 3×10^6 CAR T/kg body weight
  patients who benefitted from a single dose of infliximab: fewer patients benefitted
